Assay results reported in ChEMBL document CHEMBL1126469, “On the significance of the C-terminal primary amide in cholecystokinin” (Bioorg Med Chem Lett, 1993).

Columns and labels:
[1] = species on record: Rattus norvegicus; assay: The compound was tested for its ability to stimulate amylase secretion from rat pancreatic acini; type: functional, organism-based
[2] = target: T1, Gastrin/cholecystokinin type B receptor (Rattus norvegicus, UniProt P30553); assay: In vitro binding affinity against Cholecystokinin type B receptor of rat pancreatic acini
T1 sequence (P30553 whole entry): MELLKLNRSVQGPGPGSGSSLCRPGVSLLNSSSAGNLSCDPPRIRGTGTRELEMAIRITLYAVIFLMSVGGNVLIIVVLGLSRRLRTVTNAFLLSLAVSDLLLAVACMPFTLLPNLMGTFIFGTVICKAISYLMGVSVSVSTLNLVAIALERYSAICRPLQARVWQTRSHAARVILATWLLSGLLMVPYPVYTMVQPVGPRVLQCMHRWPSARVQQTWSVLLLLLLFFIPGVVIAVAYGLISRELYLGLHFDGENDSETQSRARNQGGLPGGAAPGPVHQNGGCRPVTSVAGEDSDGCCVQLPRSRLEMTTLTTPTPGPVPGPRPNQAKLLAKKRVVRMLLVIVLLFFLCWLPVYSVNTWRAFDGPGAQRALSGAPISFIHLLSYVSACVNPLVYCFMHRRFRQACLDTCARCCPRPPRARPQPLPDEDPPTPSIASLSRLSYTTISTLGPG

[3] = species on record: Rattus norvegicus; assay: Antagonist activity against amylase secretion from rat pancreatic acini; type: functional, organism-based

Row | EC50 ([1]; Rattus norvegicus) [nM] | IC50 [2] [nM] | SMILES | also measured
1 | 9300 |  | CCCC[C@H](NC(=O)[C@H](Cc1ccc(OS(=O)(=O)O)cc1)NC(=O)OC(C)(C)C)C(=O)NCC(=O)N[C@H](Cc1c[nH]c2ccccc12)C(=O)N[C@@H](CCCC)C(=O)N[C@@H](CC(=O)O)C(=O)NCC(c1ccccc1)c1ccccc1 | 
2 |  | 100 | CCCC[C@H](NC(=O)[C@H](Cc1ccc(OS(=O)(=O)O)cc1)NC(=O)OC(C)(C)C)C(=O)NCC(=O)N[C@@H](Cc1c[nH]c2ccccc12)C(=O)N[C@@H](CCCC)C(=O)N[C@@H](CC(=O)O)C(=O)NCCc1ccccc1 | EC50 [1]: 30 nM
3 |  |  | CCCC[C@H](NC(=O)[C@H](Cc1ccc(OS(=O)(=O)O)cc1)NC(=O)OC(C)(C)C)C(=O)NCC(=O)N[C@H](Cc1c[nH]c2ccccc12)C(=O)N[C@@H](CCCC)C(=O)N[C@@H](CC(=O)O)C(=O)N(C)CCc1ccccc1 | IC50 [3]: 26000 nM
4 | 32 |  | CCCC[C@H](NC(=O)[C@H](Cc1ccc(OS(=O)(=O)O)cc1)NC(=O)OC(C)(C)C)C(=O)NCC(=O)N[C@@H](Cc1c[nH]c2ccccc12)C(=O)N[C@@H](CCCC)C(=O)N[C@@H](CC(=O)O)C(=O)NCC(c1ccccc1)c1ccccc1 | 
5 |  | 48 | CCCC[C@H](NC(=O)C(Cc1c[nH]c2ccccc12)NC(=O)CNC(=O)[C@H](CCCC)NC(=O)[C@H](Cc1ccc(OS(=O)(=O)O)cc1)NC(=O)OC(C)(C)C)C(=O)N[C@@H](CC(=O)O)C(=O)NCCc1ccccc1 (single isomer, unassigned) | EC50 [1]: 70 nM
6 | 700 |  | CCCC[C@H](NC(=O)[C@H](Cc1ccc(OS(=O)(=O)O)cc1)NC(=O)OC(C)(C)C)C(=O)NCC(=O)N[C@@H](Cc1c[nH]c2ccccc12)C(=O)N[C@@H](CCCC)C(=O)N[C@@H](CC(=O)O)C(=O)NC(Cc1ccccc1)Cc1ccccc1 | 
7 | 86000 |  | CCCC[C@H](NC(=O)[C@H](Cc1ccc(OS(=O)(=O)O)cc1)NC(=O)OC(C)(C)C)C(=O)NCC(=O)N[C@H](Cc1c[nH]c2ccccc12)C(=O)N[C@@H](CCCC)C(=O)N[C@@H](CC(=O)O)C(=O)NC(Cc1ccccc1)Cc1ccccc1 | 
8 |  | 500 | CCCC[C@H](NC(=O)[C@H](Cc1ccc(OS(=O)(=O)O)cc1)NC(=O)OC(C)(C)C)C(=O)NCC(=O)N[C@H](Cc1c[nH]c2ccccc12)C(=O)N[C@@H](CCCC)C(=O)N[C@@H](CC(=O)O)C(=O)NCCc1ccccc1 | IC50 [3]: 30000 nM
